≈ marks a conversion by molar mass, not a printed value. Structures can show the parent of a compound that is named as a salt.
Key:
[1] = test system: Salmonella enterica serovar Typhimurium SL1344
[2] = test system: Salmonella enterica serovar Typhimurium SL1344; assay: intracellular MIC (10-fold luminescence reduction); higher = less potent; settings: RAW264.7 macrophages
[3] = test system: RAW264.7; assay: cytotoxicity (LDH release relative to maximum lysis); higher = more toxic; settings: 50 µM; 2 h

Structure (SMILES)	MIC ([1]; LPM pH 5.8) [µM]	MIC ([1]; MHB) [µM]	MIC ([1]; MOPS glucose minimal medium) [µM]	intracellular MIC [2] [µM]	cytotoxicity [3] [%]
CCOc1ccc(Cc2nccc3cc(OCC)c(OCC)cc23)cc1OCC [ETHAVERINE HYDROCHLORIDE]	> 50	> 50	> 50	> 50	12.8
CCN(CC)C(C)CN1c2ccccc2Sc2ccccc21 (stereo not given) [ETHOPROPAZINE HYDROCHLORIDE]	> 50	> 50	> 50	≤ 0.78	11.8
Nc1ccncc1 [FAMPRIDINE]	> 50	> 50	> 50	> 50	20.4
CS(=O)(=O)c1ccc([C@@H](O)[C@@H](CF)NC(=O)C(Cl)Cl)cc1 [FLORFENICOL]	≤ 0.78	12.5 (≈ 4.48 µg/mL)	6.25 (≈ 2.24 µg/mL)	6.25	21.3
O=c1[nH]c(=O)n([C@H]2C[C@H](O)[C@@H](CO)O2)cc1F [FLOXURIDINE]	≤ 0.78	≤ 0.78	≤ 0.78	> 50	18.7
CC1CCc2cc(F)cc3c(=O)c(C(=O)O)cn1c23 (stereo not given) [FLUMEQUINE]	≤ 0.78	6.25 (≈ 1.63 µg/mL)	1.56 (≈ 0.408 µg/mL)	> 50	20.1
O=c1[nH]cc(F)c(=O)[nH]1 [FLUOROURACIL]	≤ 0.78	> 50	≤ 0.78	≤ 0.78	8.29
O=C1OCCN1/N=C/c1ccc([N+](=O)[O-])o1 [FURAZOLIDONE]	6.25 (≈ 1.41 µg/mL)	12.5 (≈ 2.81 µg/mL)	12.5 (≈ 2.81 µg/mL)	≤ 0.78	6.45
COc1c(N2CCNC(C)C2)c(F)cc2c(=O)c(C(=O)O)cn(C3CC3)c12 (stereo not given) [GATIFLOXACIN]	≤ 0.78	≤ 0.78	≤ 0.78	≤ 0.78	21.7
CO/N=C1\CN(c2nc3c(cc2F)c(=O)c(C(=O)O)cn3C2CC2)CC1CN (stereo not given) [GEMIFLOXACIN MESYLATE]	≤ 0.78	≤ 0.78	≤ 0.78	1.56	5.86
CCCCC(CC)CN1CN(CC(CC)CCCC)CC(C)(N)C1 (stereo not given) [HEXETIDINE]	25 (≈ 8.49 µg/mL)	> 50	> 50	> 50	49.5
CCCCCN(C)CCC(O)(P(=O)(O)O)P(=O)(O)O [IBANDRONATE SODIUM]	> 50	> 50	> 50	1.56	6.92
C[C@H]1COc2c(N3CCN(C)CC3)c(F)cc3c(=O)c(C(=O)O)cn1c23 [LEVOFLOXACIN]	≤ 0.78	≤ 0.78	≤ 0.78	≤ 0.78	21
N[C@@H](Cc1cc(I)c(Oc2ccc(O)c(I)c2)c(I)c1)C(=O)O [LIOTHYRONINE]	> 50	> 50	> 50	> 50	6.23
CCOC(=O)Nc1nc2ccccc2[nH]1 [LOBENDAZOLE]	50 (≈ 10.3 µg/mL)	> 50	> 50	> 50	21.1
CCn1cc(C(=O)O)c(=O)c2cc(F)c(N3CCNC(C)C3)c(F)c21 (stereo not given) [LOMEFLOXACIN HYDROCHLORIDE]	1.56	≤ 0.78	≤ 0.78	≤ 0.78	15.9
CCCCc1nc(Cl)c(CO)n1Cc1ccc(-c2ccccc2-c2nnn[nH]2)cc1 [LOSARTAN]	> 50	> 50	> 50	> 50	5.92

Structure (SMILES)	MIC ([1]; LPM pH 5.8) [µM]	MIC ([1]; MHB) [µM]	MIC ([1]; MOPS glucose minimal medium) [µM]	intracellular MIC [2] [µM]	cytotoxicity [3] [%]
Cc1ccc(Nc2c(F)cccc2Cl)c(CC(=O)O)c1 [LUMIRACOXIB]	> 50	> 50	> 50	≤ 0.78	7.05
NCc1ccc(S(N)(=O)=O)cc1 [MAFENIDE HYDROCHLORIDE]	> 50	> 50	> 50	1.56	7.52
CNCCCC12CCC(c3ccccc31)c1ccccc12 [MAPROTILINE HYDROCHLORIDE]	> 50	> 50	> 50	3.13	34
C=C1c2c(Cl)ccc(O)c2C(=O)C2=C(O)[C@]3(O)C(=O)C(C(N)=O)=C(O)[C@@H](N(C)C)[C@@H]3[C@@H](O)[C@H]12.O=C(O)c1cc(S(=O)(=O)O)ccc1O [MECLOCYCLINE SULFOSALICYLATE]	≤ 0.78	≤ 0.78	≤ 0.78	3.13	16.3
Cc1ccc(Cl)c(Nc2ccccc2C(=O)O)c1Cl [MECLOFENAMATE SODIUM]	> 50	> 50	> 50	> 50	7.81
CC(=O)[C@H]1CC[C@H]2[C@@H]3C[C@H](C)C4=CC(=O)CC[C@]4(C)[C@H]3[C@@H](O)C[C@]12C [MEDRYSONE]	> 50	> 50	> 50	> 50	7.6
CCCNC(C)(C)COC(=O)c1ccccc1 [MEPRYLCAINE HYDROCHLORIDE]	> 50	> 50	> 50	1.56	6.92
C[C@@H](O)[C@H]1C(=O)N2C(C(=O)O)=C(S[C@@H]3CN[C@H](C(=O)N(C)C)C3)[C@H](C)[C@H]12 [MEROPENEM]	3.13 (≈ 1.2 µg/mL)	12.5 (≈ 4.79 µg/mL)	6.25 (≈ 2.4 µg/mL)	3.13	14.9
CN1C[C@H](CNC(=O)OCc2ccccc2)C[C@@H]2c3cccc4c3c(cn4C)C[C@H]21 [METERGOLINE]	> 50	> 50	> 50	≤ 0.78	16.2
C=C1c2cccc(O)c2C(=O)C2=C(O)[C@]3(O)C(=O)C(C(N)=O)=C(O)[C@@H](N(C)C)[C@@H]3[C@@H](O)[C@H]12 [METHACYCLINE HYDROCHLORIDE]	≤ 0.78	6.25	3.13	3.13	13.8
C[C@H]1C[C@@H]2[C@H]([C@@H](O)C[C@@]3(C)[C@H]2CC[C@]3(O)C(=O)CO)[C@@]2(C)C=CC(=O)C=C12 [METHYLPREDNISOLONE]	> 50	> 50	> 50	> 50	8.21
CN(C)c1ccc(O)c2c1C[C@H]1C[C@H]3[C@H](N(C)C)C(O)=C(C(N)=O)C(=O)[C@@]3(O)C(O)=C1C2=O [MINOCYCLINE HYDROCHLORIDE]	≤ 0.78	12.5	6.25	12.5	21
COc1c(N2C[C@@H]3CCCN[C@@H]3C2)c(F)cc2c(=O)c(C(=O)O)cn(C3CC3)c12 [MOXIFLOXACIN HYDROCHLORIDE]	> 50	> 50	> 50	> 50	24.3
C/C(=C\C(=O)OCCCCCCCCC(=O)O)C[C@@H]1OC[C@H](C[C@@H]2O[C@H]2[C@@H](C)[C@H](C)O)[C@@H](O)[C@H]1O [MUPIROCIN]	≤ 0.78	> 50	25 (≈ 12.5 µg/mL)	25	15.4
CC1CCc2c(N3CCC(O)CC3)c(F)cc3c(=O)c(C(=O)O)cn1c23 (stereo not given) [NADIFLOXACIN]	≤ 0.78	3.13 (≈ 1.13 µg/mL)	1.56 (≈ 0.562 µg/mL)	1.56	12.7
CCn1cc(C(=O)O)c(=O)c2ccc(C)nc21 [NALIDIXIC ACID]	≤ 0.78	25 (≈ 5.81 µg/mL)	6.25 (≈ 1.45 µg/mL)	> 50	16
